This is an account of results in ChEMBL document CHEMBL3399915, “Design, synthesis, and evaluation of phenylglycinols and phenyl amines as agonists of GPR88” (Bioorg Med Chem Lett, 2015).

Usually EC50 stands for the concentration at which the effect is half-maximal. As usually defined, the half-life is how long it takes for the measured level to halve. Low values mean fast loss, high ones slow loss. For orientation: clearance means a measure of how efficiently the substance is removed, as volume per time. As a reminder, the CL/F is the apparent clearance, not corrected for the fraction that reaches the circulation.

Some results are limits rather than exact numbers.

Series [1] addresses T1, G protein-coupled receptor 88 (Homo sapiens, UniProt Q9GZN0). As to the kind of experiment: Agonist activity at GPR88 (unknown origin) transfected in forskolin-stimulated HEK cells assessed as inhibition of cAMP production after 30 mins by HTRF method relative to control. The class given is functional, cell-based, HEK293.
Series [2] concerns the target T1, G protein-coupled receptor 88. The series is described as follows: Agonist activity at GPR88 (unknown origin) transfected in forskolin-stimulated HEK cells assessed as [35S]GTPgammaS binding after 60 mins by trilux scintillation counting analysis relative to control. The format is functional, cell-based, HEK293.
A short description of series [3]: Volume of distribution at steady state in mouse at 1 mg/kg, iv. The settings on record: in vivo, read-out: Vdss. The class given is ADME, organism-based. Also noted: dose 1 mg/kg, route intravenous.
Series [4] is described as follows: Plasma concentration in mouse at 1 mg/kg, iv after 30 mins. The class given is ADME, organism-based. Details: dose 1 mg/kg, route intravenous.
A short description of series [5]: Half life in mouse at 1 mg/kg, iv. The class given is ADME, organism-based. Also noted: dose 1 mg/kg, route intravenous. As to conditions: in vivo.
The nature of series [6]: Clearance in mouse at 1 mg/kg, iv. As to conditions: in vivo. Also noted: dose 1 mg/kg, route intravenous. The class given is ADME, organism-based.
A short description of series [7]: Plasma protein binding in mouse by equilibrium dialysis method. The format is ADME, cell-free. As to conditions: read-out: PPB (converted). In general terms: In equilibrium dialysis only unbound substance equilibrates across the membrane.
A short description of series [8]: Plasma protein binding in rat by equilibrium dialysis method. The class given is ADME, cell-free. As to conditions: read-out: PPB (converted).
Series [9] in a line: Drug uptake in mouse brain at 1 mg/kg, iv after 30 mins. The settings on record: read-out: Drug uptake. Also noted: dose 1 mg/kg, route intravenous. The format is ADME, organism-based.
Series [10] is described as follows: Ratio of drug level in brain to plasma in mouse at 1 mg/kg, iv after 30 mins. As to conditions: brain and plasma, read-out: BPR. The class given is ADME, organism-based. Details: dose 1 mg/kg, route intravenous.
Series [11] can be described thus: Drug uptake in rat CSF at 10 mg/kg, ip after 30 mins. The format is ADME, organism-based, Cerebrospinal fluid. Also noted: dose 10 mg/kg, route intraperitoneal. As to conditions: read-out: Drug uptake.
A short description of series [12]: Drug uptake in rat brain at 30 mg/kg, ip after 30 mins. The format is ADME, organism-based. Details: dose 30 mg/kg, route intraperitoneal. As to conditions: read-out: Drug uptake.
Series [13] can be described thus: Protein binding in rat brain by equilibrium dialysis method. The format is ADME, tissue-based. The settings on record: read-out: PB (converted).
A short description of series [14]: Plasma concentration in rat at 10 mg/kg, ip after 30 mins. The class given is ADME, organism-based. Also noted: dose 10 mg/kg, route intraperitoneal.
Series [15] in a line: Plasma concentration in rat at 30 mg/kg, ip after 30 mins. The format is ADME, organism-based. Details: dose 30 mg/kg, route intraperitoneal.
Series [16] can be described thus: Clearance in mouse at 10 mg/kg, ip. Also noted: dose 10 mg/kg, route intraperitoneal. The settings on record: in vivo. The class given is ADME, organism-based.
Series [17] is described as follows: Drug uptake in rat CSF at 30 mg/kg, ip after 30 mins. Details: dose 30 mg/kg, route intraperitoneal. The format is ADME, organism-based, Cerebrospinal fluid. As to conditions: read-out: Drug uptake.
Series [18] can be described thus: Drug uptake in rat lung at 30 mg/kg, ip after 30 mins. The format is ADME, organism-based. Details: dose 30 mg/kg, route intraperitoneal. The settings on record: read-out: Drug uptake.
A short description of series [19]: Drug uptake in rat brain at 10 mg/kg, ip after 30 mins. Details: dose 10 mg/kg, route intraperitoneal. The class given is ADME, organism-based. The settings on record: read-out: Drug uptake.
Series [20] can be described thus: Drug uptake in rat lung at 10 mg/kg, ip after 30 mins. The format is ADME, organism-based. Details: dose 10 mg/kg, route intraperitoneal. As to conditions: read-out: Drug uptake.

T1 sequence (Q9GZN0 whole entry): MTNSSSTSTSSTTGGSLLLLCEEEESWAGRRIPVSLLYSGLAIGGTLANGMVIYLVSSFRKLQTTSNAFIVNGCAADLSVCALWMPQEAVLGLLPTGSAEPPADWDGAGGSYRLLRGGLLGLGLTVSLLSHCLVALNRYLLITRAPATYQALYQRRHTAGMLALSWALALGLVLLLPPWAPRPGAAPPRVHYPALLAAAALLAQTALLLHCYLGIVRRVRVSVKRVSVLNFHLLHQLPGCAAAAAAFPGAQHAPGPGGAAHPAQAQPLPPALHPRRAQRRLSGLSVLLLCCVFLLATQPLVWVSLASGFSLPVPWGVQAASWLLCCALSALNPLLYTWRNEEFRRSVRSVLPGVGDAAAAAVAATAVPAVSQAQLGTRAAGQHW

On to `CC[C@H](C)COc1ccc([C@H](CO)NC(=O)[C@@H](C)c2ccccc2)cc1`, for which the concentration giving a half-maximal response (EC50) in [1] was 190 nM.

On to `CCCC(C)COc1ccc([C@H](CO)NC(=O)[C@H]2C[C@@H]2c2ccccc2)cc1` (mixture of isomers), for which, in series [1], the EC50 stood at 730 nM.

For `CCCC(C)COc1ccc([C@H](CN(C)C)NC(=O)[C@@H](C)c2ccccc2)cc1` (mixture of isomers), the 50% effective concentration (EC50) in series [1] was 29 nM.

Regarding `CCCC(C)COc1ccc([C@H](CN2CCN(C)CC2)NC(=O)[C@@H](C)c2ccccc2)cc1` (mixture of isomers), the half-maximal effective concentration (EC50) in [1] amounted to 90 nM.

On to `Cc1ccc(-c2ccc([C@H](CO)NC(=O)[C@H]3C[C@@H]3c3cccs3)cc2)cc1`, for which the concentration for a half-maximal effect (EC50) in [2] turned out to be 240 nM; in [1], 93 nM. Moreover, the %max in [2] (HEK293) and in [1] (HEK293) was 90% each time. The Vd in series [3] came out at 2.17 L/kg. Further, the concentration at 0.5 h in [4] was 290 nM; in series [9] it was 695 nM. This compound had a half-life in series [5] of 36 min. Moreover, the clearance in [6] turned out to be 47 mL/min/kg. The fraction unbound is 0.036 in series [7] and 0.025 in [8]. Also, in [10], the Kp at 0.5 h was determined as 2.

On to `CCCC(C)COc1ccc([C@H](CO)NC(=O)C(CO)c2ccccc2)cc1` (mixture of isomers), for which, in [1], the 50% effective concentration (EC50) was 810 nM.

Take `CCCC(C)COc1ccc([C@H](CN)NC(=O)[C@@H](C)c2ccccc2)cc1` (mixture of isomers): the EC50 in [1] turned out to be 110 nM.

Take `COCC(C)Oc1ccc([C@H](CO)NC(=O)[C@@H](C)c2ccccc2)cc1` (stereo partly drawn): in [1], the concentration giving a half-maximal response (EC50) was more than 10000 nM.

Take `CO[C@@H](C)COc1ccc([C@H](CO)NC(=O)[C@@H](C)c2ccccc2)cc1`: the EC50 in [1] is more than 10000 nM.

For `O=C(N[C@@H](CO)c1ccc2ccccc2c1)[C@@H]1C[C@H]1c1ccccc1`, in [1], the concentration for a half-maximal effect (EC50) was more than 270000 nM.

In the case of `O=C(N[C@@H](CO)c1ccc2ccccc2c1)[C@@H]1C[C@@H]1c1ccccc1`, the concentration giving a half-maximal response (EC50) in series [1] was more than 81000 nM.

With `CC[C@H](C)COc1cc(C)c([C@H](CO)NC(=O)[C@@H](C)c2ccccc2)c(C)c1`, the concentration giving a half-maximal response (EC50) in series [1] is 170 nM.

`CC[C@H](C)COc1ccc([C@H](CO)NC(=O)[C@H]2C[C@@H]2c2cccs2)cc1`: the concentration at 0.5 h amounted to 5.6 nM in [11]; 5540 nM in series [12]; 2210 nM in [14]; 5270 nM in series [15]; 5.7 nM in series [17]; 11500 nM in [18]. In addition, the concentration at 0.5 h in series [19] amounted to 2510 nM. For the same compound, in series [1], the EC50 was more than 10000 nM. The fraction unbound in [13] was 0.06. Further, in series [16], the apparent clearance CL/F turned out to be 144 mL/min/kg.

Regarding `CC[C@H](C)COc1ccc([C@H](CO)NC(=O)[C@@H](C)c2ccccc2)c(OC)c1`, the EC50 in series [1] was 190 nM.

Turning to `CC(C)COc1ccc([C@H](CO)NC(=O)[C@H]2C[C@@H]2c2cccs2)cc1`, the concentration at 0.5 h stood at 24 nM in series [11], 3240 nM in series [14], 10500 nM in series [20] and 6850 nM in series [19]. Moreover, the half-maximal effective concentration (EC50) in series [1] was determined as 690 nM. Further, the fraction unbound in series [13] was 0.05. This compound returned a CL/F in series [16] of 176 mL/min/kg.

As for `CCCC(C)COc1ccc([C@H](CN2CCOCC2)NC(=O)[C@@H](C)c2ccccc2)cc1` (mixture of isomers), the 50% effective concentration (EC50) in [1] turned out to be 91 nM.

Regarding `CC[C@H](C)COc1ccc([C@H](CO)NC(=O)[C@@H](C)c2ccccc2)c(F)c1`, the EC50 in [1] amounted to 460 nM.

For the compound `O=C(NC(CO)c1ccc2ccccc2c1)[C@@H]1C[C@H]1c1ccccc1` (mixture of isomers), the EC50 in series [1] was determined as 6000 nM.

For `CCCC(C)COc1ccc([C@H](CN2CCCC2)NC(=O)[C@@H](C)c2ccccc2)cc1` (mixture of isomers), the concentration giving a half-maximal response (EC50) in series [1] was 570 nM.

`O=C(N[C@@H](CO)c1ccc2ccccc2c1)[C@H]1C[C@@H]1c1ccccc1`: the EC50 in [1] amounted to 2500 nM.

On to `C[C@H](C(=O)N[C@@H](CO)c1ccc(OCC2CCO2)cc1)c1ccccc1` (stereo partly drawn), for which, in [1], the EC50 is more than 10000 nM.

On to `CC[C@H](C)COc1ccc([C@H](CO)NC(=O)[C@@H](C)c2ccccc2)c(C)n1`, for which the half-maximal effective concentration (EC50) in [1] amounted to 260 nM.

In the case of `COc1ccc([C@H](CO)NC(=O)[C@@H](C)c2ccccc2)cc1`, the concentration at 0.5 h worked out at 335 nM in [11], 1240 nM in [14], 970 nM in [20] and 450 nM in [19]. Besides, the EC50 in series [1] stood at 410 nM. For the same compound, the fraction unbound in series [13] is 0.23.

In the case of `CCCC(C)COc1ccc([C@H](CO)NC(=O)c2ccccc2)cc1` (mixture of isomers), the EC50 in [1] was 170 nM.

For the compound `CCCC(C)COc1ccc([C@H](CO)NC(=O)N(CC)Cc2ccccc2)cc1` (mixture of isomers), in series [1], the EC50 amounted to 1500 nM.

As for `CCCC(C)COc1ccc([C@H](CO)NC(=O)Cc2ccccc2)cc1` (mixture of isomers), the concentration for a half-maximal effect (EC50) in series [1] was more than 10000 nM.

On to `CC[C@H](C)COc1ccc([C@H](CO)NC(=O)[C@@H](C)c2ccccc2)c(C)c1`, for which the concentration for a half-maximal effect (EC50) in series [1] was 160 nM.

As to `CC[C@H](C)COc1ccc([C@H](CN)NC(=O)[C@@H](C)c2ccccc2)cc1`, the concentration at 0.5 h in series [11] was 1.1 nM; in [14], 860 nM; in [20], 59500 nM; in series [19], 340 nM. Also, in series [1], the concentration for a half-maximal effect (EC50) was more than 10000 nM. For the same compound, in series [13], the fraction unbound is 0.09. Moreover, the CL/F in [16] was found to be 66 mL/min/kg.

On to `CC(C)COc1ccc([C@H](CO)NC(=O)[C@@H](C)c2ccccc2)cc1`, for which, in [1], the EC50 is 500 nM.

`O=C(N[C@@H](CO)c1ccc2ccccc2c1)[C@H]1C[C@H]1c1ccccc1`: the EC50 in series [1] is more than 110000 nM.

With `CCCC(C)COc1ccc([C@H](CO)NC(=O)[C@@H](NC)c2ccccc2)cc1` (mixture of isomers), in [1], the EC50 was determined as 860 nM.
